Each block holds one compound with its values, some of them ahead of it.
What was measured:
[1] = Evaluation of conversion rate to active form in human plasma (Experimental Example 3); format: in vitro ADME; settings: human, 0.2 μmol/L
Protocol: (§1) For Example 1, Example 2, Example 3, Example 4, Example 5, Example 6, Comparative Example 3, Comparative Example 4, Comparative Example 6, Comparative Example 7, Comparative Example 8, Comparative Example 9, Comparative Example 10 and Comparative Example 12, the attrition rate of the test compound and the conversion rate of the test compound to Alvocidib in human plasma and BALB/c mouse plasma were calculated by the following method.
(§2) The test compound was added to human plasma or BALB/c mouse plasma at a concentration of 0.2 μmol/L, and incubated at 37° C. The peak areas of the test compound and Alvocidib in the sample were determined by LC-MS/MS after 0, 30 and 60 minutes for Example 1, Example 2, Example 3, Example 4, Example 5 and Example 6, and after 0, 60 and 120 minutes for Comparative Example 3, Comparative Example 4, Comparative Example 6, Comparative Example 7, Comparative Example 8, Comparative Example 9, Comparative Example 10 and Comparative Example 12, and the attrition rate of the test compound and the conversion rate of the test compound to Alvocidib were calculated by the following formula. Attrition rate of test compound (%):(peak area of test compound in sample/peak area of test compound in sample after 0 minute)×100 Conversion rate to Alvocidib (%):(peak area of Alvocidib in sample/peak area of Alvocidib in reaction solution containing 0.2 μmol/L Alvocidib)×100
(§3) The measurement conditions for LC-MS/MS are as follows. • HPLC: Prominence system (Shimadzu Corporation) • MS/MS: • Example 1, Example 2, Example 3, Example 4, Example 5, Example 6, Comparative Example 8 (mouse), Comparative Example 10 (mouse) and Comparative Example 12 (mouse) • QTRAP5500 (SCIEX) • Comparative Example 6, Comparative Example 7, Comparative Example 8 (human), Comparative Example 9, Comparative Example 10 (human) and Comparative Example 12 (human) • 4000 QTRAP (SCIEX) • column: • other than Example 3 and Example 4 • Cadenza CD-C18, 3 μm, 50×2 mm (Imtakt Corporation) • Example 3 and Example 4 • Kinetex C8, 2.6 μm, 50×2.1 mm (Phenomenex) • column temperature: 40° C. • mobile phase: • A: water containing 0.1% formic acid • B: acetonitrile containing 0.1% formic acid • A/B (min): • Example 1, Example 2, Example 5, Example 6, Comparative Example 8 (mouse), Comparative Example 10 (mouse) and Comparative Example 12 (mouse) • 90/10(0)→40/60(5.0)→10/90(5.1)→10/90(6.5)→90/10(6.6)→90/10(8.0) • Example 3 and Example 4 • 86/14(0)→86/14(3.5)→10/90(5.5)→10/90(6.5)→86/14(6.6)→86/14(9.5) • Comparative Example 6, Comparative Example 7, Comparative Example 8 (human), Comparative Example 9, Comparative Example 10 (human) and Comparative Example 12 (human) • 90/10(0)→10/90(2.5)→10/90(3.5)→90/10(3.6)→90/10(5.0) • flow rate: 0.4 mL/min • detection: ESI (positive mode) • injection: 1 to 5 μL

[2] = Evaluation of conversion rate to active form in BALB/c mouse plasma (Experimental Example 3); format: in vitro ADME; settings: BALB/c, mouse, 0.2 μmol/L
Protocol: as §1, §2, §3

[3] = Evaluation of conversion rate to active form in buffer solution (Experimental Example 1); format: physicochemical; settings: for Conversion to Alvocidib at pH 7.4: pH 7.4, 37° C., up to 3 hours
Protocol: For Examples 1 to 16 and Comparative Examples 1 to 14, the attrition rate of the test compound and the conversion rate of the test compound to Alvocidib in a buffer solution were calculated by the following method.
Examples 1 to 16 and Comparative Examples 1 to 14 were each left in buffer solutions adjusted to pH 5.0, 5.5, 6.0, 6.5, 7.0 and 7.4, respectively, at a concentration of 25 umol/L at 37° C. After 0, 0.5, 1, 2 and 3 hours, the residual rates of the compounds of Examples […] and the production rate of Alvocidib were determined by HPLC.
The buffer solutions used at each pH are as follows. • pH 5.0: 50 mM citrate buffer solution (pH 5.0) • pH 5.5: 50 mM citrate buffer solution (pH 5.5) • pH 6.0: 50 mM phosphate buffer solution (pH 6.0) • pH 6.5: 50 mM phosphate buffer solution (pH 6.5) • pH 7.0: 50 mM phosphate buffer solution (pH 7.0) • pH 7.4: 50 mM phosphate buffer solution (pH 7.4)
The measurement conditions for HPLC are as follows.

Production rate (%) of Alvocidib ([1]; 0 min): 1%
Residual rate (%) of test compound ([1]; 0 min): 100%
Production rate (%) of Alvocidib ([1]; 60 min): 1%
Residual rate (%) of test compound ([1]; 60 min): 78%
Production rate (%) of Alvocidib ([1]; 120 min): 2%
Residual rate (%) of test compound ([1]; 120 min): 101%
Production rate (%) of Alvocidib ([2]; 0 min): 1%
Residual rate (%) of test compound ([2]; 0 min): 100%
Production rate (%) of Alvocidib ([2]; 60 min): 7%
Residual rate (%) of test compound ([2]; 60 min): 90%
Production rate (%) of Alvocidib ([2]; 120 min): 13%
Residual rate (%) of test compound ([2]; 120 min): 78%
Production rate of Alvocidib ([3]; pH5.0, 0 hr): 1.2%
Residual rate ([3]; pH5.0, 0 hr): 90.6%
Production rate of Alvocidib ([3]; pH5.0, 0.5 hr): 1.2%
Residual rate ([3]; pH5.0, 0.5 hr): 90.6%
Production rate of Alvocidib ([3]; pH5.0, 1 hr): 1.2%
Residual rate ([3]; pH5.0, 1 hr): 90.7%
Production rate of Alvocidib ([3]; pH5.0, 2 hr): 1.3%
Residual rate ([3]; pH5.0, 2 hr): 90.2%
Production rate of Alvocidib ([3]; pH5.0, 3 hr): 1.2%
Residual rate ([3]; pH5.0, 3 hr): 90.6%
Production rate of Alvocidib ([3]; pH5.5, 0 hr): 1.1%
Residual rate ([3]; pH5.5, 0 hr): 90.9%
Production rate of Alvocidib ([3]; pH5.5, 0.5 hr): 1.1%
Residual rate ([3]; pH5.5, 0.5 hr): 90.9%
Production rate of Alvocidib ([3]; pH5.5, 1 hr): 1.2%
Residual rate ([3]; pH5.5, 1 hr): 90.6%
Production rate of Alvocidib ([3]; pH5.5, 2 hr): 1.2%
Residual rate ([3]; pH5.5, 2 hr): 89.9%
Production rate of Alvocidib ([3]; pH5.5, 3 hr): 1.1%
Residual rate ([3]; pH5.5, 3 hr): 90.7%
Production rate of Alvocidib ([3]; pH6.0, 0 hr): 1.1%
Residual rate ([3]; pH6.0, 0 hr): 91.0%
Production rate of Alvocidib ([3]; pH6.0, 0.5 hr): 1.2%
Residual rate ([3]; pH6.0, 0.5 hr): 90.8%
Production rate of Alvocidib ([3]; pH6.0, 1 hr): 1.1%
Residual rate ([3]; pH6.0, 1 hr): 90.9%
Production rate of Alvocidib ([3]; pH6.0, 2 hr): 1.2%
Residual rate ([3]; pH6.0, 2 hr): 90.0%
Production rate of Alvocidib ([3]; pH6.0, 3 hr): 1.2%
Residual rate ([3]; pH6.0, 3 hr): 90.9%
Production rate of Alvocidib ([3]; pH6.5, 0 hr): 1.1%
Residual rate ([3]; pH6.5, 0 hr): 90.8%
Production rate of Alvocidib ([3]; pH6.5, 0.5 hr): 1.1%
Residual rate ([3]; pH6.5, 0.5 hr): 90.9%
Production rate of Alvocidib ([3]; pH6.5, 1 hr): 1.2%
Residual rate ([3]; pH6.5, 1 hr): 90.8%
Production rate of Alvocidib ([3]; pH6.5, 2 hr): 1.3%
Residual rate ([3]; pH6.5, 2 hr): 89.9%
Production rate of Alvocidib ([3]; pH6.5, 3 hr): 1.2%
Residual rate ([3]; pH6.5, 3 hr): 90.8%
Production rate of Alvocidib ([3]; pH7.0, 0 hr): 1.1%
Residual rate ([3]; pH7.0, 0 hr): 91.0%
Production rate of Alvocidib ([3]; pH7.0, 0.5 hr): 1.2%
Residual rate ([3]; pH7.0, 0.5 hr): 91.0%
Production rate of Alvocidib ([3]; pH7.0, 1 hr): 1.2%
Residual rate ([3]; pH7.0, 1 hr): 90.9%
Production rate of Alvocidib ([3]; pH7.0, 2 hr): 1.4%
Residual rate ([3]; pH7.0, 2 hr): 89.8%
Production rate of Alvocidib ([3]; pH7.0, 3 hr): 1.3%
Residual rate ([3]; pH7.0, 3 hr): 90.8%
Production rate of Alvocidib ([3]; pH7.4, 0 hr): 1.1%
Residual rate ([3]; pH7.4, 0 hr): 91.0%
Conversion to Alvocidib at pH 7.4 [3]: slowly converted to Alvocidib
Production rate of Alvocidib ([3]; pH7.4, 0.5 hr): 1.2%
Residual rate ([3]; pH7.4, 0.5 hr): 91.0%
Production rate of Alvocidib ([3]; pH7.4, 1 hr): 1.2%
Residual rate ([3]; pH7.4, 1 hr): 91.0%
Production rate of Alvocidib ([3]; pH7.4, 2 hr): 1.4%
Residual rate ([3]; pH7.4, 2 hr): 90.1%
Production rate of Alvocidib ([3]; pH7.4, 3 hr): 1.3%
Residual rate ([3]; pH7.4, 3 hr): 90.8%
Structure (SMILES): CCOC(=O)O[C@@H]1CN(C)CC[C@@H]1c1c(O)cc(O)c2c(=O)cc(-c3ccccc3Cl)oc12 [Comparative Example 3, reference compound]

Production rate (%) of Alvocidib ([1]; 0 min): 0%
Residual rate (%) of test compound ([1]; 0 min): 100%
Production rate (%) of Alvocidib ([1]; 60 min): 23%
Residual rate (%) of test compound ([1]; 60 min): 74%
Production rate (%) of Alvocidib ([1]; 120 min): 32%
Residual rate (%) of test compound ([1]; 120 min): 58%
Production rate (%) of Alvocidib ([2]; 0 min): 2%
Residual rate (%) of test compound ([2]; 0 min): 100%
Production rate (%) of Alvocidib ([2]; 60 min): 19%
Residual rate (%) of test compound ([2]; 60 min): 85%
Production rate (%) of Alvocidib ([2]; 120 min): 27%
Residual rate (%) of test compound ([2]; 120 min): 76%
Production rate of Alvocidib ([3]; pH7.4, 0 hr): 1.4%
Residual rate ([3]; pH7.4, 0 hr): 98.0%
Conversion to Alvocidib at pH 7.4 [3]: slowly converted to Alvocidib
Production rate of Alvocidib ([3]; pH7.4, 0.5 hr): 1.5%
Residual rate ([3]; pH7.4, 0.5 hr): 97.5%
Production rate of Alvocidib ([3]; pH7.4, 1 hr): 1.6%
Residual rate ([3]; pH7.4, 1 hr): 97.6%
Production rate of Alvocidib ([3]; pH7.4, 2 hr): 1.8%
Residual rate ([3]; pH7.4, 2 hr): 97.6%
Structure (SMILES): CN1CC[C@H](c2c(O)cc(O)c3c(=O)cc(-c4ccccc4Cl)oc23)[C@H](OC(=O)c2ccccc2F)C1 [Comparative Example 12]
